Assay results: patent publication US20220152071A1, “MARKERS OF EFFICACY OF TOPOISOMERASE POISONS” (Northwestern University, priority 2019, published 2022)

Columns and labels:
[1] = tested on: RPS11 KO SNB19 cells; assay: Viability assay, RPS11 KO cells; type: cell-based, human; settings: 5 μM, 72 hrs
Description: (§1) Single gene editing. To edit FANCB and RPS11, we used single guide RNAs that were enriched for both genes as well as the non-targeting controls. Briefly, these guides were synthesized by Synthego and following the protocol, we prepared the ribonucleoprotein complexes by mixing the guides (180 pmol) with recombinant Cas9 protein (Synthego) 20 pmol in […]. The complexes were allowed to form at room temp for 15 mins, and then […] of Opti-MEM I reduced serum medium and […] of lipofectamine Cas9 plus reagent were then added. Both, the cells and the formed ribonucleoprotein complexes, were seeded at the same time with 150,000 SNB19 cells in a T25 flask. The cells were incubated for 4 days.
(§2) Viability assay. […] Titre glo was added following incubation with drugs. (Cat No: G7572) and the viability of cells was analyzed 5 min later by measuring the luminescence. We normalized the intensity against DMSO treated cells of each cell line or PDX or the edited cell and then determined the survival. Pictures of these cells were also taken as shown in the source data figures.

[2] = tested on: FANCB KO SNB19 cells; assay: Viability assay, FANCB KO cells; type: cell-based, human; settings: 5 μM, 72 hrs
Description: as §1, §2

[3] = tested on: SNB19; assay: Viability assay (Titre glo), susceptible glioma cell line; type: cell-based, human; settings: etoposide 5 μM, 72 hrs
Description: as §2

[4] = tested on: resistant glioma cell lines; assay: Viability assay, resistant glioma cell lines; type: cell-based, human; settings: etoposide 5 μM, 72 hrs
Description: as §2

[5] = tested on: SNB19 cells; assay: Genome-wide CRISPR KO screen, etoposide selection; type: cell-based, human; settings: etoposide 5 μM, 14 days, CRISPR KO library SNB19 cells
Description: Large scale cell culture and expansion. To perform the CRISPR screening, SNB19 cells were expanded to 500 million and then spinfected with 70,000sgRNA. After spinfection, the cells are selected with 0.6 μg/ml of puromycin for 4 days. This selection is aimed at the cells that have been rightly integrated with the sgRNA that incorporates the puromycin cassette into their genome. […] We used 50 million of selected cells for the extraction of genomic DNA. The base sgRNA representation is obtained by amplification of the sgRNA with unique barcoded primers. The remaining 100 million cells were expanded for 2 days, once cells grew to 200 million. […] After 14 days, the cells were harvested, the gDNA extracted, and the sgRNA amplified with another unique barcoded primer.

[6] = tested on: GBM12; assay: Etoposide dose-response viability; type: cell-based, human; settings: GBM12, dose-response in vitro 72 hrs
Description: as §2

[7] = tested on: GBM43; assay: Etoposide dose-response viability; type: cell-based, human; settings: GBM43, dose-response in vitro 72 hrs
Description: as §2

[8] = tested on: GBM6; assay: Etoposide dose-response viability; type: cell-based, human; settings: GBM6, dose-response in vitro 72 hrs
Description: as §2

[9] = tested on: MES83; assay: Etoposide dose-response viability; type: cell-based, human; settings: MES83, dose-response in vitro 72 hrs
Description: as §2

[10] = tested on: U251; assay: Etoposide dose-response viability; type: cell-based, human; settings: U251, dose-response in vitro 72 hrs
Description: as §2

[11] = tested on: SNB19; assay: Click-it Plus OPP nascent protein synthesis; type: cell-based, human; settings: SNB19, 5 μM, 24 hrs
Description: (§3) Click-it Plus OPP Assay, Apoptosis Assay and Flow Cytometry. To determine if nascent protein synthesis is impaired upon editing of RPS11 and FANCB. We seeded edited cells SgRPS11, SgFANCB, wild type SNB19 and the non-targeting controls in a 96 well plate with black covers overnight at 4,000 cells/well. […] Following the protocol from Life technologies (Cat No: C10456), we added the Click-it OPP (1:1000), or Caspase 3/7 (Cat no: C10427) or with antibodies against BID, BCL2 or APAF1 for 30 mins. After washing cells were fixed and primary antibodies were detected secondary antibodies conjugated to Alexa Flour 488. The fluorophore intensity was measured by flow cytometry (LSR Fortessa 1 analyzer). As a complementary approach, the labelled cells were also imaged in a fluorescent microscope (Nikon Ti2 Widefield).

[12] = tested on: U251; assay: Click-it Plus OPP nascent protein synthesis; type: cell-based, human; settings: U251, 5 μM, 24 hrs
[13] = tested on: GBM6; assay: Click-it Plus OPP nascent protein synthesis; type: cell-based, human; settings: GBM6, 5 μM, 24 hrs
[14] = tested on: GBM12; assay: Click-it Plus OPP nascent protein synthesis; type: cell-based, human; settings: GBM12, 5 μM, 24 hrs
[15] = tested on: APAF1, RPS11 KO cells; assay: APAF1 expression (qRT-PCR, Western blot); type: cell-based, human
Description: (§4) Western blot. […] The cells were lysed using water bath ultrasonicator for 4 mins. Cell lysate were cleared by centrifugation. We measured the concentration of protein in lysates. Denatured lysates were loaded into 4-20% Tris-glycine gels (Novex) and separated at 180V for 2 hrs. The gels were transferred unto a PVDF membrane by semi-dry blotting for 1 hr. We blocked the membrane in 5% non-fat milk TBST buffer for 30 mins and incubated with primary antibodies RPS11 (1:500), FANCB (1:500), GAPDH or ACTB (1:1500) in 5% BSA respectively over night shaking at 4° C. Primary antibodies were removed and we added the secondary polyclonal HRP (1:20,000) in TBST and incubated shaking for 2 hrs at room temp. The membrane were washed 6× in TBST and then developed with ECL (Cat No: 1705061) and band imaged on a Bio-Rad Chemi-doc imaging system. qRT-PCR. […] The total RNA was extracted using Zymo Research kit (Direct-zol RNA Miniprep Plus, Cat no: R2070). The quality of the RNA was determined by RNA pico bioanalyzer measuring the 18S and 28S ribosome. Using the superscript III first strand synthesis system (Cat no: 18080-051), we generated cDNA and performed qPCR with APAF1 and ACTB primers in triplicates and fold change of expression of APAF1 were normalized against actin B (ACTB).

[16] = tested on: APAF1, SNB19 WT and non-targeting control cells; assay: APAF1 expression (qRT-PCR, Western blot); type: cell-based, human
Description: as §4

[17] = tested on: BCL2, GBM6; assay: BCL2 expression by flow cytometry; type: cell-based, human; settings: GBM6, 24 hrs
[18] = tested on: BCL2, GBM12; assay: BCL2 expression by flow cytometry; type: cell-based, human; settings: GBM12, 24 hrs
Description: as §3

[19] = tested on: BID, susceptible glioma cells; assay: BID expression by flow cytometry; type: cell-based, human; settings: susceptible glioma cells compared to resistant cells, 24 hrs
Description: as §3

[20] = gliomas and brain metastases, systemic administration, human; cited from earlier work

In the case of `COc1cccc2c1C(=O)c1c(O)c3c(c(O)c1C2=O)C[C@@](O)(C(=O)CO)C[C@@H]3O[C@H]1C[C@H](N)[C@H](O)[C@H](C)O1` [doxorubicin], the “susceptibility (viability)” value [1] is reported as “resistant” and the “susceptibility (viability)” value [2] is reported as “acquired resistance”.
In the case of `COc1cc([C@@H]2c3cc4c(cc3[C@@H](O[C@@H]3O[C@@H]5CO[C@@H](C)O[C@H]5[C@H](O)[C@H]3O)[C@H]3COC(=O)[C@H]23)OCO4)cc(OC)c1O` [etoposide], the cells death [3] is reported as 80%, the cell death [4] is reported as “minimal cell death” and the cells surviving treatment [5] is reported as “less than 1%”. The “susceptibility (viability)” value [1] was “resistant”, the “susceptibility (viability)” value [2] was “acquired resistance” and the susceptibility to etoposide [6] was “resistance”. The susceptibility to etoposide [7] was “less sensitive”, the susceptibility to etoposide [8] was “resistance” and the susceptibility to etoposide [9] was “susceptible”. The susceptibility to etoposide [10] was “susceptible”, the “nascent proteins following etoposide treatment” value [11] was “decrease in nascent proteins” and the “nascent proteins following etoposide treatment” value [12] was “decrease in nascent proteins”. For the same compound, the “nascent proteins following etoposide treatment” value [13] was “no decrease in nascent proteins”, the “nascent proteins following etoposide treatment” value [14] was “no decrease in nascent proteins” and the “APAF1 protein following etoposide treatment” value [15] was “decrease”. The “APAF1 transcript following etoposide treatment” value ([15]; 24 hrs) was “no significant expression changes”, the “APAF1 transcript following etoposide treatment” value ([16]; SNB19 WT and non-targeting control cells, 24 hrs) was “significant induction” and the “APAF1 protein levels following etoposide treatment” value ([16]; SNB19 wild-type and non-targeting control cells) was “increased”. The “BCL2 expression following etoposide treatment” value [17] was “increase”, the “BCL2 expression following etoposide treatment” value [18] was “increase” and the “BID expression following etoposide treatment” value [19] was “increased BID expression”. The “intratumoral concentration in tumor tissue” value [20] was 2 to 6 µM.
